Test results published in PubChem BioAssay AID248 (DTP/NCI, 2004).
Values joined by “and” are separate entries in the source; they are usually repeats but may differ in a detail not shown here. Identical values can stand only once. Toxic doses and inconclusive results are not listed. Rule as the data show it: active = T/C of 150% or more; inactive = T/C below 125%.

Test system: L1210 leukemia ip in BDF1 mice, survival T/C
Assay: NCI In Vivo Anticancer Drug Screen. Data for tumor model L1210 Leukemia (intraperitoneal) in B6D2F1 (BDF1) mice
Conditions: endpoint: mean survival time, higher = longer survival
In short: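 Ratio derived from survival: compound-dosed mice over vehicle-dosed mice, all bearing a transplantable tumor.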

[1] = dose: 100.0 mg/kg/injection, schedule: Q01DX001 (ip), vehicle: Klucel (hydroxypropylcellulose) (HPC)
[2] = dose: 200.0 mg/kg/injection, schedule: Q01DX001 (ip), vehicle: Klucel (hydroxypropylcellulose) (HPC)
[3] = dose: 400.0 mg/kg/injection, schedule: Q01DX001 (ip), vehicle: Klucel (hydroxypropylcellulose) (HPC)
[4] = dose: 100.0 mg/kg/injection, schedule: Q01DX009 (ip), vehicle: saline with Tween-80
[5] = dose: 200.0 mg/kg/injection, schedule: Q01DX009 (ip), vehicle: saline with Tween-80
[6] = dose: 100.0 mg/kg/injection, schedule: Q01DX001 (ip), vehicle: saline
[7] = dose: 200.0 mg/kg/injection, schedule: Q01DX001 (ip), vehicle: saline
[8] = dose: 400.0 mg/kg/injection, schedule: Q01DX001 (ip), vehicle: saline
[9] = dose: 400.0 mg/kg/injection, schedule: Q01DX009 (ip), vehicle: saline with Tween-80
[10] = dose: 400.0 mg/kg/injection, schedule: Q01DX009 (ip), vehicle: saline

Measured: T/C

Cc1cc(Br)ccc1NNS(=O)(=O)c1cccc(N)c1
inactive: [1] 98 % of control | dose: 100.0 mg/kg/injection, schedule: Q04DX003 (ip), vehicle: Klucel (hydroxypropylcellulose) (HPC) 91 % of control | [2] 107 % of control | dose: 200.0 mg/kg/injection, schedule: Q04DX003 (ip), vehicle: Klucel (hydroxypropylcellulose) (HPC) 97 % of control | [3] 91 % of control | dose: 400.0 mg/kg/injection, schedule: Q04DX003 (ip), vehicle: Klucel (hydroxypropylcellulose) (HPC) 107 % of control

N#CC[CH2][Sn]([Br])([Br])[CH2]CC#N
inactive: dose: 12.5 mg/kg/injection, schedule: Q01DX009 (ip), vehicle: saline 103 % of control | dose: 50.0 mg/kg/injection, schedule: Q01DX009 (ip), vehicle: saline 96 % of control

CC(C)N(C(=S)[S-])C(C)C.CC(C)N(C(=S)[S-])C(C)C.[Zn]
inactive: dose: 37.5 mg/kg/injection, schedule: Q01DX009 (ip), vehicle: saline 89 % of control | dose: 75.0 mg/kg/injection, schedule: Q01DX001 (ip), vehicle: acetone 97 % of control | dose: 75.0 mg/kg/injection, schedule: Q01DX009 (ip), vehicle: saline 90 % of control | dose: 75.0 mg/kg/injection, schedule: Q04DX003 (ip), vehicle: saline 101 % of control | dose: 150.0 mg/kg/injection, schedule: Q01DX001 (ip), vehicle: acetone 92 % of control | dose: 150.0 mg/kg/injection, schedule: Q01DX009 (ip), vehicle: saline 86 % of control | dose: 150.0 mg/kg/injection, schedule: Q04DX003 (ip), vehicle: saline 90 % of control | dose: 300.0 mg/kg/injection, schedule: Q01DX001 (ip), vehicle: acetone 93 % of control | dose: 300.0 mg/kg/injection, schedule: Q04DX003 (ip), vehicle: saline 86 % of control

CC(C)N(C(=S)SSC(=S)N(C(C)C)C(C)C)C(C)C
inactive: dose: 50.0 mg/kg/injection, schedule: Q01DX009 (ip), vehicle: saline with Tween-80 97 % of control | [4] 101 % of control | [5] 97 % of control

O=C(Nc1nccs1)NC1CCCCC1
inactive: dose: 100.0 mg/kg/injection, schedule: Q01DX009 (ip), vehicle: other 100 % of control | dose: 200.0 mg/kg/injection, schedule: Q01DX009 (ip), vehicle: other 96 % of control | dose: 400.0 mg/kg/injection, schedule: Q01DX009 (ip), vehicle: other 93 % of control

COc1ccc(Cc2ccc3[nH]c(=O)cc(C)c3c2)cc1S(=O)(=O)O
inactive: [6] 104 % of control | [7] 105 % of control | [8] 94 % of control

C[N+]1(CC(=O)c2ccc(CCc3ccc(C(=O)C[N+]4(C)CCCCC4)cc3)cc2)CCCCC1
inactive: dose: 0.78 mg/kg/injection, schedule: Q01DX009 (ip), vehicle: saline 117 % of control | dose: 0.78 mg/kg/injection, schedule: Q04DX002 (ip), vehicle: saline 101 % of control | dose: 1.56 mg/kg/injection, schedule: Q01DX009 (ip), vehicle: saline 106 % of control | dose: 1.56 mg/kg/injection, schedule: Q04DX002 (ip), vehicle: saline 95 % of control | dose: 3.12 mg/kg/injection, schedule: Q01DX009 (ip), vehicle: saline 92 % of control | dose: 3.12 mg/kg/injection, schedule: Q04DX002 (ip), vehicle: saline 98 % of control and 105 % of control

CCCCCSc1cccc(N)c1
inactive: dose: 100.0 mg/kg/injection, schedule: Q01DX001 (ip), vehicle: saline with Tween-80 112 % of control | dose: 200.0 mg/kg/injection, schedule: Q01DX001 (ip), vehicle: saline with Tween-80 102 % of control | dose: 400.0 mg/kg/injection, schedule: Q01DX001 (ip), vehicle: saline with Tween-80 97 % of control

O=C(Nc1ccccc1C(F)(F)F)OCC1CCCO1 (stereo not drawn)
inactive: dose: 100.0 mg/kg/injection, schedule: Q01DX009 (ip), vehicle: gum acacia 109 % of control | dose: 200.0 mg/kg/injection, schedule: Q01DX009 (ip), vehicle: gum acacia 95 % of control | dose: 400.0 mg/kg/injection, schedule: Q01DX009 (ip), vehicle: gum acacia 100 % of control

CCOC(=O)C=C1CCP(C)CC1 (stereo not drawn)
inactive: dose: 75.0 mg/kg/injection, schedule: Q01DX001 (ip), vehicle: carboxymethylcellulose (CMC) 103 % of control | dose: 150.0 mg/kg/injection, schedule: Q01DX001 (ip), vehicle: carboxymethylcellulose (CMC) 94 % of control

O=C1CC2C=CCC12 (stereo not drawn)
inactive: dose: 100.0 mg/kg/injection, schedule: Q04DX003 (ip), vehicle: saline with Tween-80 95 % of control | dose: 200.0 mg/kg/injection, schedule: Q04DX003 (ip), vehicle: saline with Tween-80 93 % of control | dose: 400.0 mg/kg/injection, schedule: Q04DX003 (ip), vehicle: saline with Tween-80 93 % of control

O=C(O)/C=C(/Oc1ccc(Cl)cc1Cl)C(=O)O
inactive: dose: 100.0 mg/kg/injection, schedule: Q04DX002 (ip), vehicle: Klucel (hydroxypropylcellulose) (HPC) 97 % of control | dose: 100.0 mg/kg/injection, schedule: Q04DX002 (ip), vehicle: saline with Tween-80 100 % of control | dose: 200.0 mg/kg/injection, schedule: Q04DX002 (ip), vehicle: Klucel (hydroxypropylcellulose) (HPC) 87 % of control | dose: 200.0 mg/kg/injection, schedule: Q04DX002 (ip), vehicle: saline with Tween-80 100 % of control | dose: 400.0 mg/kg/injection, schedule: Q04DX002 (ip), vehicle: Klucel (hydroxypropylcellulose) (HPC) 110 % of control | dose: 400.0 mg/kg/injection, schedule: Q04DX002 (ip), vehicle: saline with Tween-80 100 % of control

CCCC(C)OC(=O)Nc1cccc(O)c1 (stereo not drawn)
inactive: [4] 101 % of control | [5] 101 % of control | [9] 102 % of control

CS(=O)(=O)OCCC(=O)NCCCCNC(=O)CCOS(C)(=O)=O
inactive: [6] 104 % of control | dose: 100.0 mg/kg/injection, schedule: Q04DX003 (ip), vehicle: saline 115 % of control | [7] 117 % of control | dose: 264.0 mg/kg/injection, schedule: Q01DX001 (ip), vehicle: saline 103 % of control and 121 % of control | dose: 264.0 mg/kg/injection, schedule: Q01DX009 (ip), vehicle: saline 113 % of control | [8] 97 % of control | [9] 122 % of control | [10] 112 % of control

CS(=O)(=O)OCC(O)C(O)C(O)C(O)COS(C)(=O)=O (stereo not drawn)
inactive: dose: 100.0 mg/kg/injection, schedule: Q01DX001 (ip), vehicle: carboxymethylcellulose (CMC) 98 % of control | dose: 200.0 mg/kg/injection, schedule: Q01DX001 (ip), vehicle: carboxymethylcellulose (CMC) 92 % of control | dose: 400.0 mg/kg/injection, schedule: Q01DX001 (ip), vehicle: carboxymethylcellulose (CMC) 103 % of control

CC(CO)CCCC(C)C1C(O)CC2C3CCC4CC(O)CCC4(C)C3CCC21C (stereo not drawn)
inactive: [1] 88 % of control | [2] 88 % of control | [3] 91 % of control

CC(O)CNC(=O)C(C)(C)O (stereo not drawn)
inactive: dose: 100.0 mg/kg/injection, schedule: Q01DX009 (ip), vehicle: saline 96 % of control | dose: 200.0 mg/kg/injection, schedule: Q01DX009 (ip), vehicle: saline 96 % of control | [10] 94 % of control

C=CC[N+](C)(C)C
inactive: dose: 75.0 mg/kg/injection, schedule: Q01DX001 (ip), vehicle: saline 101 % of control

Cc1cc(N(C)C)cc(C)c1C(=Nc1ccc(N=C(NO)c2c(C)cc(N(C)C)cc2C)cc1)NO
inactive: [6] 97 % of control | [7] 109 % of control

NC(=O)N1C(c2ccccc2)C1c1ccccc1 (stereo not drawn)
inactive: dose: 12.5 mg/kg/injection, schedule: Q01DX009 (ip), vehicle: Klucel (hydroxypropylcellulose) (HPC) 100 % of control | dose: 12.5 mg/kg/injection, schedule: Q04DX003 (ip), vehicle: Klucel (hydroxypropylcellulose) (HPC) 93 % of control | dose: 25.0 mg/kg/injection, schedule: Q01DX009 (ip), vehicle: Klucel (hydroxypropylcellulose) (HPC) 97 % of control | dose: 25.0 mg/kg/injection, schedule: Q04DX003 (ip), vehicle: Klucel (hydroxypropylcellulose) (HPC) 100 % of control | dose: 50.0 mg/kg/injection, schedule: Q01DX009 (ip), vehicle: Klucel (hydroxypropylcellulose) (HPC) 100 % of control | dose: 50.0 mg/kg/injection, schedule: Q04DX003 (ip), vehicle: Klucel (hydroxypropylcellulose) (HPC) 92 % of control

COc1ccc2nc(NC(=O)NCCCl)sc2c1
inactive: [1] 90 % of control | [2] 95 % of control | [3] 91 % of control

NC(=O)c1ccccc1Nc1ccc([N+](=O)[O-])cc1[N+](=O)[O-]
inactive: dose: 34.0 mg/kg/injection, schedule: Q01DX Z (ip), vehicle: carboxymethylcellulose (CMC) 95 % of control | dose: 49.0 mg/kg/injection, schedule: Q01DX Z (ip), vehicle: carboxymethylcellulose (CMC) 95 % of control
